Assay results: patent publication EP0928291B1, “3-MERCAPTOACETYLAMINO-1,5-SUBSTITUTED-2-OXO-AZEPAN DERIVATIVES USEFUL AS INHIBITORS OF MATRIX METALLOPROTEINASE” (Aventis Pharmaceuticals Inc., priority 1996, dated 1998)
pKi: −log10 of the molar value.

Tests used:
Assay type in all cases: biochemical
[1] = target: T1, MMP-2 (Homo sapiens, UniProt P08253); assay: Determination of Inhibition Constant (Ki) for MMP-2, fluorogenic substrate assay; conditions: recombinant MMP-2, substrate Mca-Pro-Leu-Gly-Leu-Dpa-Ala-Arg-NH2, 37°C, pH 7.6, [S] = 1 µM, [MMP-2] = 0.4 nM
T1 construct: made in house; host or cells: Pichia pastoris (strains KM71 / SMD1168, clone 24S)
T1 sequence (P08253 110-660): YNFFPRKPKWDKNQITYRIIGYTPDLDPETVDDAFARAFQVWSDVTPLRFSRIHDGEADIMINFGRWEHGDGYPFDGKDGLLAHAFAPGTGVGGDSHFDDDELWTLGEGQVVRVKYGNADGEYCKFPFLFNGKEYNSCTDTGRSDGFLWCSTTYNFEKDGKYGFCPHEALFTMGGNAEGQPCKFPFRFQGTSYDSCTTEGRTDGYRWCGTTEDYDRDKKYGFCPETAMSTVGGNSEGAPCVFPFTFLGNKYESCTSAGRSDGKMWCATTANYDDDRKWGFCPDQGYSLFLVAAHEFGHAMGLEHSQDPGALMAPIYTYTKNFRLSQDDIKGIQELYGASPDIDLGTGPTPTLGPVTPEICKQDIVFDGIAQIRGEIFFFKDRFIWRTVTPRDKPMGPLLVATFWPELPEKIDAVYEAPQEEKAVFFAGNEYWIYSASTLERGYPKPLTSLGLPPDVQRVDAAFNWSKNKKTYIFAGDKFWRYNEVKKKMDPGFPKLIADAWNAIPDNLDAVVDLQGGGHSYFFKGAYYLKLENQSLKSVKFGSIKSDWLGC
Source text: Recombinant MMP-2 was purified from the fermentation broth of yeast Pichia pastoris that carries the integrated MMP-2 gene into its chromosome. In brief, the full-length cDNA for MMP-2 was obtained by reverse transcription of RNA from human melanoma A375M cell line by the reverse transcriptase polymerase chain reaction (RT-PCR) using sequence specific oligonucleotides. The nucleotide sequence was confirmed by Taq cycle sequencing. The cDNA was ligated into the Pichia pastoris expression vector pHIL-D2 in such a way that the expression of pro-MMP2 is under the control of the methano inducible alcohol oxidase promoter. The expression construct was digested with either SalI or NsiI and used to transform the Pichia pastoris strains KM71 and SMD1168. […]
The active MMP-2 was obtained by activation of proMMP-2 at 37°C for 1 h with 4-aminophenylmercuric acetate which was then removed by a Sephadex G-50 spin column. […] The increase in fluorescence is monitored (λex 328 nm, λem 393 nm). […] Under these conditions, the measured Ki, app is close to true Ki.
(§1) The Ki for a competitive inhibitor is calculated using: v0/vi = (1 + [I]/Ki, app) and Ki = Ki, app/(1 + [S]/Km), where v0 is the initial rate in the absence of inhibitor, vi is the initial rate in the presence of inhibitor at the concentration of [I], [S] is the substrate concentration, and Km is the Michaelis constant. […]

[2] = target: T2, MMP-3 (Homo sapiens, UniProt P08254); assay: Determination of Inhibition Constant (Ki) for MMP-3, fluorogenic substrate assay; conditions: activated MMP-3, substrate Mca-Pro-Leu-Gly-Leu-Dpa-Ala-Arg-NH2, 37°C, pH 7.6, [S] = 1 µM, [MMP-3] = 1 nM
T2 construct: The active MMP-3 was obtained by treatment of proMMP-3 with trypsin; endogenous in cells; host or cells: human rheumatoid synovial fibroblasts stimulated with macrophage-conditioned medium (secreted proenzyme purified from the culture medium)
T2 sequence (P08254 100-477): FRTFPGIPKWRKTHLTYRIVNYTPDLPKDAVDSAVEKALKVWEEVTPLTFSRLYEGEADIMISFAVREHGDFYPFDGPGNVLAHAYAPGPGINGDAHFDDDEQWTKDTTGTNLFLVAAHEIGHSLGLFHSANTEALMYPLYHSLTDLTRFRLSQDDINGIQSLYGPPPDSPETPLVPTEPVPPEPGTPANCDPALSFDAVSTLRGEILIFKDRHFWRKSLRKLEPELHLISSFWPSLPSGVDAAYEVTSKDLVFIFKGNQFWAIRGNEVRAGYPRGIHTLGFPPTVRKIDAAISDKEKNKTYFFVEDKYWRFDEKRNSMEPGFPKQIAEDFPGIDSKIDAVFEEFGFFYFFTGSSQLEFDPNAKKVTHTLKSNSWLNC
Method: ProMMP-3 (EC 3.4.24.17; Stromelysin-1) was purified from culture medium of human rheumatoid synovial fibroblasts stimulated with macrophage-conditioned medium according to Okada, Y. et al., J. Biol. Chem. 261, 14245-14255 (1986). The active MMP-3 was obtained by treatment of proMMP-3 with trypsin (5 µg/mL) at 37°C for 30 min, followed by addition of soybean trypsin inhibitor (50 µg/mL). Aliquots of the activated MMP-3 were stored at -20°C.
The activated MMP-3 is assayed using a fluorogenic substrate, Mca-Pro-Leu-Gly-Leu-Dpa-Ala-Arg-NH2, Knight, C.G. et al., FEBS Lett. 296, 263-266 (1992), at 37°C in an assay buffer containing 50 mM Tris, pH 7.6, 0.2 M NaCI, 50 mM CaCl2, and 0.02% Brij-35. The increase in fluorescence due to cleavage of Gly-Leu peptide bond by MMP-3 was monitored with Perkin-Elmer LS50B Fluorimeter (λex 328 nm, λem 393 nm, excitation slit 2.5, emission slit 10). Substrate and inhibitor stock solutions were made in DMF and 0.1% HCl-DMF, respectively. […] Under these conditions, the measured Ki, app is close to true Ki.
as §1

[3] = target: T3, MMP-12 (macrophage metalloelastase) (Homo sapiens, UniProt P39900); assay: Determination of the inhibition constant (Ki) for MMP-12, fluorogenic substrate assay (cuvette or microtiter plate); conditions: substrate Mca-Pro-Leu-Gly-Leu-Dpa-Ala-Arg-NH2, 25C, pH 7.6, [MMP-12] = 2 nM, cuvette or microtiter plate method
T3 construct: made in house
T3 sequence (P39900 106-263 limits assumed): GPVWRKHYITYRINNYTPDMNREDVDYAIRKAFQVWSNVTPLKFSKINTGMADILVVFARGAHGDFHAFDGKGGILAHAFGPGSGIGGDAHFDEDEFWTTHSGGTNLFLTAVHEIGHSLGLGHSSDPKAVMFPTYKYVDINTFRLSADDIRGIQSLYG
Method: MMP-12 (EC 3.4.24.65) was cloned, expressed and purified according to Shapiro, S.D. et al., J Biol. Chem. 268, 23824-23829 (1993). […] Aliquots of MMP-12 were stored at -70C.
The potency of inhibitors of MMP-12 was measured using either quartz cuvettes or microtiter plates. The activity of MMP-12 was measured using a fluorogenic substrate, Mca-Pro-Leu-Gly-Leu-Dpa-Ala-Arg-NH2, Knight, C.G. et al., FEBS Lett. 296,263-266 (1992), at 25C in an assay buffer containing 50 mM Tris, pH 7.6, 0.2 M NaCl, 50 mM CaCl2, and 0.02% Brij-35. The increase in fluorescence due to cleavage of Gly-Leu peptide bond by MMP-12 was monitored with a Perkin-Elmer LS50B Fluorimeter (λex 328 nm, λem 393 nm, excitation slit 2.5, emission slit 10) for the cuvette assay and with a Molecular Devices Fmax fluorescence plate reader (λex 320 nm, λem 405 nm) for the microtiter plate assay. Substrate and inhibitor stock solutions were made in N,N,dimethylformamide (DMF) and 0.1% HCI-DMF, respectively. […]
Ki values were determined using the microtiter plate method in a manner similar to that described for the cuvette method with some modifications. […] Cleavage of substrate was recorded every 30 seconds for 30 minutes and progress curves were generated. […]

SMILES | pKi [1] | pKi [2] | pKi [3]
CNC(=O)C(Cc1ccccc1)N1CCC(c2ccccc2)CC(NC(=O)C(S)CCCCN2C(=O)c3ccccc3C2=O)C1=O (stereo not drawn) [Compound II-1, 2H-Isoindole-2-hexanamide, N-[hexahydro-1-[2-(methylamino)-2-oxo-1-(phenylmethyl)ethyl]-2-oxo-5-phenyl-1H-azepin-3-yl]-1,3-dihydro-α-mercapto-1,3-dioxo-, [3S-(1(R*), 3α, 5α]]-] | 8.92 | 7.41 | 7.74
CNC(=O)C(Cc1ccccc1)N1CCC(c2ccccc2)CC(NC(=O)C(S)CCCCN2C(=O)c3ccccc3C2=O)C1=O (stereo not drawn) [Compound III-1, 2H-Isoindole-2-hexanamide, N-[hexahydro-1-[2-(methylamino)-2-oxo-1-(phenylmethyl)ethyl]-2-oxo-5-phenyl-1H-azepin-3-yl]-1,3-dihydro-α-mercapto-1,3-dioxo-, [3S-[1(R*), 3α, 5β]]-] | – | 7.14 | 7.28
